Experiment in all cases: Crystal Violet assay of BAL27862-resistant cell line versus parental line
What all share (format): cell-based, human

The test system of one assay is A549. An excerpt: (§1) BAL27862-resistant sublines of human non-small cell lung cancer (H460 ATCC reference HTB-177; A549 ATCC reference CCL-185), ovarian cancer (SKOV3 ATCC reference HTB-77) lines were generated by long-term selection in complete cell culture medium (RPMI-1640 containing 10% FCS; Sigma-Aldrich) by stepwise increasing concentrations of BAL27862. […] The resistant sublines were expanded at the highest tolerated BAL27862 concentration and subsequently frozen and stored in liquid nitrogen.
(§2) After medium was removed, cells were fixed and stained by adding 50 μl Crystal Violet Staining (0.2% Crystal Violet in 50% Methanol) per well. Plates were incubated for 1 hour at room temperature. Subsequently the stain was decanted and plates were washed 4 times with double-distilled water. Plates were air-dried for several hours. Stain was dissolved by adding 100 μl buffer (0.1 M Tris pH 7.5, 0.2% SDS, 20% Ethanol) per well and shaking the plates. Absorbance at 590 nm was measured using a SpectraMax M2e plate reader (Molecular Devices). Anti-proliferative IC50 values were calculated from concentration response curves using GraphPad Prism software. Resistance factors were calculated as a ratio of BAL27862 IC50 in the resistant line variant versus the IC50 in the parental line.

Another assay deals with SKOV3 resistant 1.
Description: as §1, §2

The subject of the next assay is H460.
Description: as §1, §2

The next assay deals with SKOV3 resistant 2.
Description: as §1, §2

For the compound `N#CCCNc1nonc1-c1nc2ccccc2n1CC(=O)c1ccc(N)cc1` [BAL27862, 3-(4-{1-[2-(4-Amino-phenyl)-2-oxo-ethyl]-1H-benzoimidazol-2-yl}-furazan-3-ylamino)-propionitrile], the “resistance factors versus parental lines (based on IC50 determinations)” value amounted to 3.0 fold in the assay with A549, 7.6 fold with SKOV3 resistant 1, 5.3 fold with H460 and 11.6 fold with SKOV3 resistant 2.

These data come from patent US9970938B2, “Use of BUBR1 as a biomarker of drug response to furazanobenzimidazoles” (Basilea Pharmaceutica AG, priority 2011, dated 2018).
